Laboratory results as given in US20220031652A1, “USE OF AN ORGANOMETALLIC COMPOUND AS A DNA-DEMETHYLATING AGENT” (UNIVERSITE DE LORRAINE, priority 2018, published 2022).

Tested on: MDA-MB231, T47D, T47D R+ doxo, U251 and U87 cells
Experiment: Crystal violet proliferation test at 2 μM, 48 h or 72 h
Format: cell-based
Protocol: Each cell line is seeded in 96-well plates (100 μL medium/well) according to the following conditions:
After 48 h or 72 h of treatment, the medium of each well is removed then a washing is carried out with 100 μL of PBS.
The cells are then fixed with 100 μL of paraformaldehyde 4% for 20 minutes, followed by two washings with 500 μL of PBS.
The percentage of cells adhered is highlighted by a crystal violet coloration.
100 μL of crystal violet at 0.1% (1/5 dilution in H2O of the stock solution: 0.5% crystal violet 2% filtered ethanol 0.22 μM) is added in each well.
After 30 minutes of incubation at ambient temperature, the wells are rinsed 3 times with distilled water, then correctly dried by patting on a sheet of absorbent paper.
100 μL of 10% acetic acid is then added to each well.
The plate is stirred until total solubilisation of the crystal violet crystals (around 10 minutes).

[Ru+2].c1ccc(-c2cc(-c3ccccn3)nc(-c3ccccn3)c2)cc1.c1ccc(-c2cc(-c3ccccn3)nc(-c3ccccn3)c2)cc1 [Ru]
inhibition of the proliferation (crystal violet): does not lead to any inhibition of the proliferation
